Measured values published in US20100285039A1, “B7-H1 (CD274) Antagonists Induce Apoptosis of Tumor Cells” (THE JOHNS HOPKINS UNIVERSITY, priority 2008, published 2010).

Experiments:
[1] = tested on: B7-H1/P815 cells; experiment: Staurosporine induced apoptosis (annexin V/PI); type: cell-based, mouse; conditions: Staurosporine (STP 1 μM), control Ig-treated cells
Experimental: PD-1Ig fusion protein or control IgG were coated on 96 well-plates for 18 hr at 4° C. Full length B7-H1/P815 cells were cultured with STP (1 μM) in the well coated PD-1Ig or control IgG. Cells were harvested after 24 hr and stained with annexin V (BD PharMingen) at 5 μl/test, propidium iodide (PI) (Sigma-Aldrich) at 5 μg/ml for 1 hour and monoclonal antibodies against H-2D^d. Apoptosis was calculated as the percentage of annexin V+PI-cells gated in the H-2D^d+ fractions.
B7-H1 was assayed to determine whether it confers resistance to drugs which induce apoptosis of tumor cells. […] Staurosporine is often used as a general method for inducing apoptosis of tumor cells.

[2] = molecular target: wild type murine B7-H1 expressed on P815 cells (B7-H1/P815) (mouse) (UniProt Q9EP73); experiment: cell-based or functional assay
wild type murine B7-H1 expressed on P815 cells (B7-H1/P815) (mouse), sequence (Q9EP73 19-290): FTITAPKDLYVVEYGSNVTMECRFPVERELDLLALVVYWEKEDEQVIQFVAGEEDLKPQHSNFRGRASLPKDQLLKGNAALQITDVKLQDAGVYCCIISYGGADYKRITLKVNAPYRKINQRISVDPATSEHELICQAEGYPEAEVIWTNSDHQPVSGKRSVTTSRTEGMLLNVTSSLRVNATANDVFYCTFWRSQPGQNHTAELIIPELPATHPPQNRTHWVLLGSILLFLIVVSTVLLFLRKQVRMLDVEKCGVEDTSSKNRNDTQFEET

| Compound | apoptosis of B7-H1/P815 cells [1] | cytolytic activity of CTLs against B7-H1/P815 targets [2] |
| --- | --- | --- |
| CN[C@@H]1C[C@H]2O[C@@](C)([C@@H]1OC)n1c3ccccc3c3c4c(c5c6ccccc6n2c5c31)C(=O)NC4 [Staurosporine] | 74.9% | – |
| wild type murine PD-1 expressed on transduced PD-1KO 2C CTLs (PD-1/PD-1^02C) (from UniProt Q02242 25-288) (receptor) | – | 50% |
